Reference: ChEMBL document CHEMBL1151539, “The synthesis and evaluation of diacylglycerol analogues as potential second-messenger antagonists” (Bioorg Med Chem Lett, 1992)

Columns and labels:
[1] = tested on: MR4; experiment: Concentration required for inhibiting the growth of MR4 cells; 0.1-1.0; format: functional, Mus musculus
[2] = tested on: HT-29; experiment: Concentration required for inhibiting the growth of HT-29 cells; 0.1-1.0; format: functional, Homo sapiens
[3] = target: Protein kinase C (PKC); experiment: Inhibition of protein kinase C; format: protein assay, Rattus norvegicus
[4] = tested on: MR4; experiment: Concentration required for inhibiting the growth of MR4 cells; 0.05-0.1; format: functional, Mus musculus
[5] = tested on: HT-29; experiment: Concentration required for inhibiting the growth of HT-29 cells; 0.05-0.1; format: functional, Homo sapiens

| I50 [3] [mM] | Structure (SMILES) | I80 [1] [mM] | I80 [2] [mM] | I80 [4] [mM] | I80 [5] [mM] |
| --- | --- | --- | --- | --- | --- |
| 0.1 | CCCCCCCC(=O)OCC(COC)OC(=O)CCCCCCC (configuration not stated) | 0.1 | 0.1 |  |  |
|  | CCCCCCCC(=O)OCC(CO)OC(=O)CCCCCCC (configuration not stated) [MONOCTANOIN COMPONENT C] |  |  | 0.05 | 0.05 |
| 0.01 | CCCCCCCC(=O)OCC(COC(C)=O)OC(=O)CCCCCCC (configuration not stated) |  |  | 0.05 |  |
